Laboratory results reported in ChEMBL document CHEMBL5303304, “EUbOPEN Chemogenomics Library - IncuCyte” (2023).

Experiments:
Assay type in all cases: toxicity, cell-based
Fibroblast = experiment: Incucyte cell viability with human fibroblast; settings: 10 µM, compound concentration 10 uM
HEK-293T = experiment: Incucyte cell viability with HEK293T; settings: human, 10 µM, compound concentration 10 uM
U2OS = experiment: Incucyte cell viability with U2OS; settings: human, 10 µM, compound concentration 10 uM
Also: unitless GR value; below 1 slowed growth and below 0 cell loss.

Structure (SMILES)	Growth Rate (Fibroblast; 0 h, replicate number 2)	Growth Rate (Fibroblast; 6 h, replicate number 2)	Growth Rate (Fibroblast; 12 h, replicate number 1)	Growth Rate (Fibroblast; 12 h, replicate number 2)	Growth Rate (Fibroblast; 18 h, replicate number 1)	Growth Rate (Fibroblast; 24 h, replicate number 1)	Growth Rate (HEK-293T; 6 h, replicate number 1)	Growth Rate (HEK-293T; 12 h, replicate number 1)	Growth Rate (HEK-293T; 12 h, replicate number 2)	Growth Rate (HEK-293T; 18 h, replicate number 2)	Growth Rate (HEK-293T; 24 h, replicate number 2)	Growth Rate (U2OS; 6 h, replicate number 1)	Growth Rate (U2OS; 12 h, replicate number 1)	Growth Rate (U2OS; 12 h, replicate number 2)	Growth Rate (U2OS; 18 h, replicate number 1)	Growth Rate (U2OS; 24 h, replicate number 1)	Growth Rate (Fibroblast; 18 h, replicate number 2)	Growth Rate (U2OS; 6 h, replicate number 2)	Growth Rate (U2OS; 18 h, replicate number 2)	Growth Rate (U2OS; 24 h, replicate number 2)	further results
CCOCCn1cc(C(=O)Nc2ccc(-n3nc(-c4cccnc4)cc3C(F)(F)F)cn2)ccc1=O [BI 1935]	-0.02	0.1	0.59	0.65	0.83	0.78	0.1	0.36	0.27	0.43	0.51	0.75	0.52	0.89	0.7	0.66					Growth Rate (HEK-293T; 6 h, replicate number 2): -0.06; Growth Rate (HEK-293T; 18 h, replicate number 1): 0.41; Growth Rate (HEK-293T; 24 h, replicate number 1): 0.48
FC(F)(F)c1ccc(Nc2ncnc3cc(-c4ncccc4C(F)(F)F)ccc23)cc1 [NGD-8243]		-1	-1	-0.24					0.89	0.92	0.88		0.94	0.71	0.96	1	0.27	0.82	0.8	0.88	Growth Rate (Fibroblast; 6 h, replicate number 1): 0.97; Growth Rate (Fibroblast; 24 h, replicate number 2): 0.37
CN(C)CCCNc1ccnc(Nc2cccc(Cl)c2)n1	0.25	0	0.88	0.34	0.67	0.56	-0.38	-0.19	-0.09	0.04	0.29	-0.98		0.65			0.45	0.82	0.64	0.47	Growth Rate (Fibroblast; 0 h, replicate number 1): -0.99; Growth Rate (Fibroblast; 6 h, replicate number 1): 0.3; Growth Rate (Fibroblast; 24 h, replicate number 2): 0.38; Growth Rate (HEK-293T; 18 h, replicate number 1): -0.03; Growth Rate (HEK-293T; 24 h, replicate number 1): 0.02; Growth Rate (U2OS; 0 h, replicate number 1): -1
O=C1CSC(=O)N1C(CCc1ccncc1)COc1ccc(-c2cccc([N+](=O)[O-])c2)cc1 (stereo not drawn)	-0.87				0.92	0.45	-0.06	0.24	0.27		0.65	0.3	0.76	0.94	0.8	0.89			0.95	1	Growth Rate (Fibroblast; 0 h, replicate number 1): 0.71; Growth Rate (HEK-293T; 6 h, replicate number 2): 0.02; Growth Rate (HEK-293T; 18 h, replicate number 1): 0.48; Growth Rate (HEK-293T; 24 h, replicate number 1): 0.87; Growth Rate (U2OS; 0 h, replicate number 1): -0.68; Growth Rate (U2OS; 0 h, replicate number 2): -0.97
COc1cc2ncnc(Nc3ccc(F)c(Cl)c3)c2cc1OCCN(C)C[C@H](C)O	0	0.44	-0.2	-0.12	-0.23	-0.21	0.36	0.61	0.49	0.69	0.73	0.7	0.68	0.35	0.77	0.92	-0.05	0.36	0.44	0.42	Growth Rate (Fibroblast; 6 h, replicate number 1): -0.42; Growth Rate (Fibroblast; 24 h, replicate number 2): 0; Growth Rate (HEK-293T; 0 h, replicate number 2): -0.98; Growth Rate (HEK-293T; 6 h, replicate number 2): 0.69; Growth Rate (HEK-293T; 18 h, replicate number 1): 0.65; Growth Rate (HEK-293T; 24 h, replicate number 1): 0.65; Growth Rate (U2OS; 0 h, replicate number 2): 0.24
CC(C)c1ccc(CC(=O)N[C@H](C)c2ccc(OCC(F)(F)F)cn2)cc1 [SUVECALTAMIDE]		-1		0.94	0.11		0.16		0.87	0.95	0.8	-0.32	0.59	0.89	0.76	0.78	0.84	0.56	0.86	0.9	Growth Rate (Fibroblast; 0 h, replicate number 1): -0.55; Growth Rate (Fibroblast; 24 h, replicate number 2): 0.74; Growth Rate (HEK-293T; 0 h, replicate number 2): 0.85; Growth Rate (U2OS; 0 h, replicate number 2): 0.67
C[C@H](NC(=O)c1cc(Cl)ccc1Oc1ccc(F)cc1)c1ccc(C(=O)O)cc1	-0.45	-0.71		0.98	0.85	0.86							0.94	0.8			0.92	0.86		0.99	Growth Rate (Fibroblast; 6 h, replicate number 1): 0.59; Growth Rate (HEK-293T; 0 h, replicate number 1): -0.19; Growth Rate (HEK-293T; 0 h, replicate number 2): 0.1
